Source: PubChem BioAssay AID2060617 (Molecular Pharmacology Branch, DTP, NCI, 2025)
pIC50: −log10 of the molar value.

Test system: 485368-065-R4-J2-PDC spheroids with HUVEC/MSC, viability
Test: Anticancer human tumor 485368-065-R4-J2-PDC patient-derived pancreatic carcinoma cell line growth inhibition [CLK]
Conditions: for pIC50: curve of first compound; for viability, T/C: stronger effect = lower value
How it was run: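 Multi-cell-type spheroids combined patient-derived tumor cells with HUVEC endothelial cells and human mesenchymal stem cells. Paired agents were dosed in half-log steps down from about clinical Cmax, or from 10 microM where Cmax was unknown.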
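Note: spheroids exposed to compounds for seven days.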
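Throughout, for viability, T/C: 100% = DMSO vehicle control wells.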

Q: How did the pIC50 (second compound 0.0316 µM) turn out when `CC(C)CC(NC(=O)C(Cc1ccccc1)NC(=O)c1cnccn1)B(O)O` (configuration not stated) + CNC(=O)c1ccc(Nc2nc(OC3CCCC3)c3c(-c4ccc5nc(C)oc5c4)c[nH]c3n2)c(OC)c1 was run?
A: The pIC50 was 8.14.

Q: And the pIC50 (second compound 0.1 µM)?
A: Its pIC50 is 8.14.

Q: What about the pIC50 (second compound 0.316 µM) of the same molecule?
A: Its pIC50 is 8.14.

Q: And the pIC50 (second compound 1 µM)?
A: Its pIC50 is 8.17.

Q: And the pIC50 (second compound 3.16 µM)?
A: The pIC50 was 8.25.

Q: What about the pIC50 (second compound 10 µM) of the same molecule?
A: Its pIC50 is 8.31.

Q: And the viability, T/C (second compound 0.0316 µM, first compound 0.000949 µM)?
A: The viability, T/C was 99.6%.

Q: What about the viability, T/C (second compound 0.0316 µM, first compound 0.003 µM) of the same molecule?
A: The viability, T/C was 122%.

Q: And the viability, T/C (second compound 0.0316 µM, first compound 0.00949 µM)?
A: Its viability, T/C is 31.1%.

Q: What about the viability, T/C (second compound 0.0316 µM, first compound 0.03 µM) of the same molecule?
A: Its viability, T/C is 16.4%.

Q: What about the viability, T/C (second compound 0.0316 µM, first compound 0.0949 µM) of the same molecule?
A: The viability, T/C was 13.2%.

Q: And the viability, T/C (second compound 0.0316 µM, first compound 0.3 µM)?
A: The viability, T/C was 3.24%.

Q: What about the viability, T/C (second compound 0.1 µM, first compound 0.000949 µM) of the same molecule?
A: Its viability, T/C is 95.3%.

Q: And the viability, T/C (second compound 0.1 µM, first compound 0.003 µM)?
A: The viability, T/C was 115%.

Q: And the viability, T/C (second compound 0.1 µM, first compound 0.00949 µM)?
A: Its viability, T/C is 32.5%.

Q: What about the viability, T/C (second compound 0.1 µM, first compound 0.03 µM) of the same molecule?
A: The viability, T/C was 13.6%.

Q: And the viability, T/C (second compound 0.1 µM, first compound 0.0949 µM)?
A: The viability, T/C was 11.8%.

Q: And the viability, T/C (second compound 0.1 µM, first compound 0.3 µM)?
A: The viability, T/C was 3.58%.

Q: And the viability, T/C (second compound 0.316 µM, first compound 0.000949 µM)?
A: Its viability, T/C is 94.3%.

Q: And the viability, T/C (second compound 0.316 µM, first compound 0.003 µM)?
A: Its viability, T/C is 112%.

Q: And the viability, T/C (second compound 0.316 µM, first compound 0.00949 µM)?
A: The viability, T/C was 33.4%.

Q: And the viability, T/C (second compound 0.316 µM, first compound 0.03 µM)?
A: Its viability, T/C is 12.5%.

Q: And the viability, T/C (second compound 0.316 µM, first compound 0.0949 µM)?
A: Its viability, T/C is 10.1%.

Q: And the viability, T/C (second compound 0.316 µM, first compound 0.3 µM)?
A: The viability, T/C was 3.9%.

Q: And the viability, T/C (second compound 1 µM, first compound 0.000949 µM)?
A: Its viability, T/C is 102%.

Q: What about the viability, T/C (second compound 1 µM, first compound 0.003 µM) of the same molecule?
A: Its viability, T/C is 101%.

Q: What about the viability, T/C (second compound 1 µM, first compound 0.00949 µM) of the same molecule?
A: The viability, T/C was 28%.

Q: What about the viability, T/C (second compound 1 µM, first compound 0.03 µM) of the same molecule?
A: The viability, T/C was 12.9%.

Q: And the viability, T/C (second compound 1 µM, first compound 0.0949 µM)?
A: Its viability, T/C is 7.65%.

Q: What about the viability, T/C (second compound 1 µM, first compound 0.3 µM) of the same molecule?
A: The viability, T/C was 1.74%.

Q: And the viability, T/C (second compound 3.16 µM, first compound 0.000949 µM)?
A: The viability, T/C was 89.4%.

Q: What about the viability, T/C (second compound 3.16 µM, first compound 0.003 µM) of the same molecule?
A: Its viability, T/C is 89.7%.

Q: And the viability, T/C (second compound 3.16 µM, first compound 0.00949 µM)?
A: The viability, T/C was 17.9%.

Q: And the viability, T/C (second compound 3.16 µM, first compound 0.03 µM)?
A: Its viability, T/C is 7.21%.

Q: What about the viability, T/C (second compound 3.16 µM, first compound 0.0949 µM) of the same molecule?
A: The viability, T/C was 5.69%.

Q: And the viability, T/C (second compound 3.16 µM, first compound 0.3 µM)?
A: Its viability, T/C is 2.56%.

Q: And the viability, T/C (second compound 10 µM, first compound 0.000949 µM)?
A: The viability, T/C was 77.9%.

Q: What about the viability, T/C (second compound 10 µM, first compound 0.003 µM) of the same molecule?
A: Its viability, T/C is 78.2%.

Q: And the viability, T/C (second compound 10 µM, first compound 0.00949 µM)?
A: Its viability, T/C is 12.5%.

Q: What about the viability, T/C (second compound 10 µM, first compound 0.03 µM) of the same molecule?
A: Its viability, T/C is 5.34%.

Q: And the viability, T/C (second compound 10 µM, first compound 0.0949 µM)?
A: The viability, T/C was 4.07%.

Q: What about the viability, T/C (second compound 10 µM, first compound 0.3 µM) of the same molecule?
A: The viability, T/C was 1.36%.
